The results in this text go back to ChEMBL document CHEMBL1122795 (J Med Chem, 1984).

Usually ED50 stands for the dose that gives a 50% effect, or the effect in half of the subjects. In general, LD50 refers to the dose at which mortality reaches 50%. A low value points to greater toxicity.

Data set [1] is filed under the species Canis familiaris. As to the kind of experiment: Inhibition of the response to phenethylamine was measured. The class given is functional. The following applies: Canis lupus familiaris.
The target in data set [2] is T1, Monoamine oxidase (Rattus norvegicus, UniProt P19643+P21396).
T1 sequence (P19643 whole entry): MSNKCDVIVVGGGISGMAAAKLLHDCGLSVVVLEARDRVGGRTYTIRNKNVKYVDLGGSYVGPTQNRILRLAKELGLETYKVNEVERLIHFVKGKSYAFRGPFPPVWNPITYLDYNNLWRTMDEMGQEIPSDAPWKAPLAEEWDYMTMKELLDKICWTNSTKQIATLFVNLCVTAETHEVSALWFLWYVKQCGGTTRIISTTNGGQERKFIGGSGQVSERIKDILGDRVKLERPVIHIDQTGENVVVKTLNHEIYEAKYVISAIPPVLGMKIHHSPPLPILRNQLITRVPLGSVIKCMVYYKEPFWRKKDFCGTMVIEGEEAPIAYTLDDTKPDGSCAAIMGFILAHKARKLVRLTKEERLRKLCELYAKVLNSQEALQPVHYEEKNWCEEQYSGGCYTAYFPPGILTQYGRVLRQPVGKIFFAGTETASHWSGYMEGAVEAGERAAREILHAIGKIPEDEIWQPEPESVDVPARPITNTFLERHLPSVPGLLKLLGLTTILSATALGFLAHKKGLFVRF
T1 sequence (P21396 whole entry): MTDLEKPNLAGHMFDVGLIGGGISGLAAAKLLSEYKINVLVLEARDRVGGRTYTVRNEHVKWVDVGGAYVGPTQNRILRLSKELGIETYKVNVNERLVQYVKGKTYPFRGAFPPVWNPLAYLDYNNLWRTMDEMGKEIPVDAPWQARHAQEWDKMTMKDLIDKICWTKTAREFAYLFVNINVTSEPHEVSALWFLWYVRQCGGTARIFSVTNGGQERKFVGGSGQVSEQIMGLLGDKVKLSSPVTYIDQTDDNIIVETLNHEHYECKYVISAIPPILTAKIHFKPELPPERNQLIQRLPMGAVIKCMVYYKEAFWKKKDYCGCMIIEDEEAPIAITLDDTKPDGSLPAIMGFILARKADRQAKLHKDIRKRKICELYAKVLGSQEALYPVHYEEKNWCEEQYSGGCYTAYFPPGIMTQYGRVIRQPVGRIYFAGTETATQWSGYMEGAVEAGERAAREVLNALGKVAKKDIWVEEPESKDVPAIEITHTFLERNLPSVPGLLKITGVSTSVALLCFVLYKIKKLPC
As to the kind of experiment: In vitro inhibitory concentration against monoamine oxidase with 5-HT as substrate. The class given is protein assay. The conditions noted are these: mouse.

Data set [3] relates to Mus musculus. As to the kind of experiment: Effective dose (p.o.) required to reverse ptosis induced by tetrabenazine in mouse. The data set is classed as functional. The conditions noted are these: po.
The species entered for data set [4] is Mus musculus. The data set is described as follows: Effective dose against oxotremorine induced lacrimation. The data set is classed as functional.
For data set [5], the species on record is Mus musculus. The data set is described as follows: Effective dose against oxotremorine induced tremor. The data set is classed as functional.
The subject of data set [6] is Rattus norvegicus. The data set is described as follows: Effective dose (p.o.) required to reverse ptosis induced by tetrabenazine in rat. The class given is functional. The conditions noted are these: po.
Data set [7] is filed under the species Canis familiaris. The data set is described as follows: Potentiation of the response to norepinephrine was measured. The following applies: Canis lupus familiaris. The class given is functional.
Data set [8] can be described thus: Acute toxicity (p.o.) after 24 hr was determined in mouse. The data set is classed as organism-based. The conditions noted are these: in vivo, po.

On to `Cl.c1ccc2c(c1)C1c3ccccc3C2C2CNCCC12` (stereo not drawn), for which the ED50 is 1.2 mg/kg in data set [1]; 0.41 mg/kg in data set [3]; over 243 mg/kg in data set [4]; over 243 mg/kg in data set [5]; 0.5 mg/kg in data set [6]; 0.22 mg/kg in data set [7]. Besides, in data set [2], the KI50 is listed as over 0.001 M l-1.
Take `CN(C)CCC=C1c2ccccc2CCc2ccccc21` [AMITRIPTYLINE]: the ED50 was 1.1 mg/kg in data set [1]; 1.3 mg/kg in data set [3]; 27 mg/kg in data set [4]; 21 mg/kg in data set [5]; 12 mg/kg in data set [6]; 1 mg/kg in data set [7]. In addition, in data set [8], the median lethal dose (LD50) at 24 h was determined as 177 mg/kg.
Regarding `CN1CCC2C3c4ccccc4C(c4ccccc43)C2C1.Cl` (stereo not drawn), the ED50 in data set [3] came to 1 mg/kg; in data set [4], 36 mg/kg; in data set [5], 100 mg/kg.
For `CN(C)CCCN1c2ccccc2CCc2ccccc21` [IMIPRAMINE], the median effective dose (ED50) in data set [1] worked out at 1.5 mg/kg; in data set [3], 1.3 mg/kg; in data set [4], 130 mg/kg; in data set [5], 70 mg/kg; in data set [6] it was 4.12 mg/kg; in data set [7] it was 3 mg/kg.
